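Interpolation was linear, between the two tested concentrations surrounding the appropriate level; five concentrations were tested over 48 hours in 96-well plates. At the GI50, growth is halved.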 Activity calls are given as the source filed them. Cut-off read from the data, not from the text of the source: active = GI50 up to about 1.1 µM and inactive = higher.
Key:
Assay in all cases: DTP human tumour cell line panel, 48 h
SN12C = tested on: SN12C
786-0 = tested on: 786-0
IGROV-1 = tested on: IGROV-1
RPMI-8226 = tested on: RPMI-8226
K562 = tested on: K562
MDA-MB-231 = tested on: MDA-MB-231
U-251 = tested on: U-251
CAKI-1 = tested on: CAKI-1
HOP-62 = tested on: HOP-62
SK-MEL-5 = tested on: SK-MEL-5
T47D = tested on: T47D
SW-620 = tested on: SW-620
UO-31 = tested on: UO-31
HT-29 = tested on: HT-29
NCI/ADR-RES = tested on: NCI/ADR-RES
BT-549 = tested on: BT-549
OVCAR-8 = tested on: OVCAR-8
SK-MEL-28 = tested on: SK-MEL-28
NCI-H522 = tested on: NCI-H522
COLO 205 = tested on: COLO 205

| SMILES | GI50 (SN12C) | GI50 (786-0) | GI50 (IGROV-1) | GI50 (RPMI-8226) | GI50 (K562) | GI50 (MDA-MB-231) | GI50 (U-251) | GI50 (CAKI-1) | GI50 (HOP-62) | GI50 (SK-MEL-5) | GI50 (T47D) | GI50 (SW-620) | GI50 (UO-31) | GI50 (HT-29) | GI50 (NCI/ADR-RES) | GI50 (BT-549) | GI50 (OVCAR-8) | GI50 (SK-MEL-28) | GI50 (NCI-H522) | GI50 (COLO 205) |
| --- | --- | --- | --- | --- | --- | --- | --- | --- | --- | --- | --- | --- | --- | --- | --- | --- | --- | --- | --- | --- |
| OC(Cc1ccccc1)(Cc1ccccc1)c1ccccc1 | 17 µM (inactive) | 15.2 µM (inactive) | 16.3 µM (inactive) | 29.3 µM (inactive) | 26.8 µM (inactive) | 19 µM (inactive) | 18.1 µM (inactive) | 23.2 µM (inactive) | 19.7 µM (inactive) | 18 µM (inactive) | 33.7 µM (inactive) | 22.2 µM (inactive) | 17.5 µM (inactive) | 15.9 µM (inactive) | 23 µM (inactive) | 18.7 µM (inactive) | 19 µM (inactive) | 21.9 µM (inactive) | 14.7 µM (inactive) | – |
| CCC/C=C/c1cc2c(cc1O)CC[C@@H]1[C@@H]2CC[C@]2(C)[C@@H](O)CC[C@@H]12 | – | 15.2 µM (inactive) | 21.1 µM (inactive) | 14 µM (inactive) | 16.8 µM (inactive) | 15.5 µM (inactive) | 16.9 µM (inactive) | 21.2 µM (inactive) | – | 16.4 µM (inactive) | 24.9 µM (inactive) | 20.6 µM (inactive) | 16.3 µM (inactive) | 18.4 µM (inactive) | 18.5 µM (inactive) | 18.8 µM (inactive) | 22.9 µM (inactive) | 19.3 µM (inactive) | 17.3 µM (inactive) | 19.1 µM (inactive) |
| CCN(CC)c1ccc(/C=C/c2ccnc3ccccc23)cc1 | > 100 µM (inactive) | > 100 µM (inactive) | > 100 µM (inactive) | > 100 µM (inactive) | > 100 µM (inactive) | > 100 µM (inactive) | > 100 µM (inactive) | > 100 µM (inactive) | > 100 µM (inactive) | > 100 µM (inactive) | > 100 µM (inactive) | > 100 µM (inactive) | > 100 µM (inactive) | > 100 µM (inactive) | > 100 µM (inactive) | > 100 µM (inactive) | – | > 100 µM (inactive) | – | > 100 µM (inactive) |
| c1ccc2c(c1)/C(=N\NC1=NCCN1)c1nc3ccccc3nc1-2 | 8.51 µM (inactive) | 3.91 µM (inactive) | 6.12 µM (inactive) | 1 µM (active) | 4.52 µM (inactive) | 10.5 µM (inactive) | 6.87 µM (inactive) | – | 3.72 µM (inactive) | 2.6 µM (inactive) | 19 µM (inactive) | 1.36 µM (inactive) | – | 0.521 µM (active) | 5.85 µM (inactive) | 20.9 µM (inactive) | 1.35 µM (inactive) | 13.5 µM (inactive) | 2.84 µM (inactive) | 2.17 µM (inactive) |
| CSc1ccc(-c2cc(-c3nc4ccccc4[nH]3)no2)cc1 | 50.2 µM (inactive) | 55.1 µM (inactive) | 23.2 µM (inactive) | 24.4 µM (inactive) | 22.1 µM (inactive) | 40.6 µM (inactive) | – | 23.6 µM (inactive) | 34.4 µM (inactive) | 15.9 µM (inactive) | 5.77 µM (inactive) | 37 µM (inactive) | 13.1 µM (inactive) | 24.8 µM (inactive) | 23.2 µM (inactive) | 19.6 µM (inactive) | 35 µM (inactive) | 27.6 µM (inactive) | 20.3 µM (inactive) | 23.9 µM (inactive) |
| Cc1ccc(NC(=O)CC(=O)n2nc(C)c(/N=N/c3cccc(C)c3)c2C)cc1 | > 100 µM (inactive) | > 100 µM (inactive) | > 100 µM (inactive) | > 100 µM (inactive) | – | > 100 µM (inactive) | > 100 µM (inactive) | > 100 µM (inactive) | 65.8 µM (inactive) | > 100 µM (inactive) | > 100 µM (inactive) | > 100 µM (inactive) | > 100 µM (inactive) | > 100 µM (inactive) | > 100 µM (inactive) | > 100 µM (inactive) | > 100 µM (inactive) | > 100 µM (inactive) | > 100 µM (inactive) | > 100 µM (inactive) |
| OCC1OC(NCCNCCNC2OC(CO)C(O)C(O)C2O)C(O)C(O)C1O (stereo not given) | > 100 µM (inactive) | > 100 µM (inactive) | > 100 µM (inactive) | > 100 µM (inactive) | > 100 µM (inactive) | > 100 µM (inactive) | > 100 µM (inactive) | – | > 100 µM (inactive) | > 100 µM (inactive) | > 100 µM (inactive) | > 100 µM (inactive) | > 100 µM (inactive) | > 100 µM (inactive) | > 100 µM (inactive) | > 100 µM (inactive) | > 100 µM (inactive) | > 100 µM (inactive) | > 100 µM (inactive) | > 100 µM (inactive) |
| CNC(=O)/C=C/C1=CN2C(=O)c3ccc(C)c(O)c3NC(OC)C2C1 (stereo not given) | < 0.01 µM (active) | < 0.01 µM (active) | 0.016 µM (active) | 0.0234 µM (active) | – | < 0.01 µM (active) | < 0.0161 µM (active) | < 0.0166 µM (active) | < 0.0143 µM (active) | 0.0116 µM (active) | < 0.0181 µM (active) | < 0.0164 µM (active) | < 0.0143 µM (active) | < 0.0143 µM (active) | < 0.01 µM (active) | < 0.01 µM (active) | < 0.0141 µM (active) | 0.0145 µM (active) | < 0.0128 µM (active) | 0.0136 µM (active) |
| COc1cc2c(cc1C1COc3cc4occc4cc3C1=O)OCO2 (stereo not given) | > 100 µM (inactive) | > 100 µM (inactive) | 63 µM (inactive) | 2.67 µM (inactive) | – | > 100 µM (inactive) | 76 µM (inactive) | 67 µM (inactive) | 40.3 µM (inactive) | > 100 µM (inactive) | > 100 µM (inactive) | > 100 µM (inactive) | > 100 µM (inactive) | 41.2 µM (inactive) | 17.1 µM (inactive) | > 100 µM (inactive) | 21.1 µM (inactive) | 40.1 µM (inactive) | > 100 µM (inactive) | > 100 µM (inactive) |
| O=C(c1ccccc1)c1c(-c2ccccc2)n(-c2ccccc2)[nH]c(=O)c1=O | 69 µM (inactive) | 31.2 µM (inactive) | 54.5 µM (inactive) | 27.5 µM (inactive) | 14.8 µM (inactive) | 20.2 µM (inactive) | 44.5 µM (inactive) | 37.6 µM (inactive) | 28.8 µM (inactive) | > 100 µM (inactive) | > 100 µM (inactive) | – | 48.4 µM (inactive) | > 100 µM (inactive) | 62.4 µM (inactive) | 13.7 µM (inactive) | 46 µM (inactive) | > 100 µM (inactive) | 0.361 µM (active) | 75.2 µM (inactive) |
| Cc1n[nH]c(=O)n1/N=C/c1cccc(Cl)c1 | > 100 µM (inactive) | > 100 µM (inactive) | – | > 100 µM (inactive) | > 100 µM (inactive) | > 100 µM (inactive) | 65.5 µM (inactive) | > 100 µM (inactive) | 49.3 µM (inactive) | – | > 100 µM (inactive) | > 100 µM (inactive) | > 100 µM (inactive) | > 100 µM (inactive) | > 100 µM (inactive) | 47.2 µM (inactive) | 64.7 µM (inactive) | > 100 µM (inactive) | – | > 100 µM (inactive) |
| CC(C)/C=N\n1c(N)c(C#N)c(C#N)c1C(C)C | 28.6 µM (inactive) | 40.2 µM (inactive) | 18.3 µM (inactive) | 14.6 µM (inactive) | 24 µM (inactive) | 19.4 µM (inactive) | 28.9 µM (inactive) | 20.5 µM (inactive) | 31.1 µM (inactive) | 15.7 µM (inactive) | 16.5 µM (inactive) | 38.1 µM (inactive) | 15.8 µM (inactive) | 33.3 µM (inactive) | 23.3 µM (inactive) | 24.2 µM (inactive) | 20.3 µM (inactive) | – | 19.3 µM (inactive) | 18.7 µM (inactive) |
| CCCCCC(=O)N[C@@H](c1ccccc1)C(O)C(=O)OC1C[C@@]2(O)C(OC(=O)c3ccccc3)C3[C@](C)(C(=O)[C@H](O)C(=C1C)C2(C)C)C(OC1OCC(O)C(O)C1O)C[C@H]1OC[C@@]31OC(C)=O (stereo not given in full) | 3.54 µM (inactive) | 4.93 µM (inactive) | 3.99 µM (inactive) | 0.486 µM (active) | 0.966 µM (active) | 67.6 µM (inactive) | 1.64 µM (inactive) | – | 5.05 µM (inactive) | 1.9 µM (inactive) | 1.76 µM (inactive) | 16.1 µM (inactive) | > 75.9 µM (inactive) | 1.19 µM (inactive) | > 100 µM (inactive) | 2.62 µM (inactive) | 6.35 µM (inactive) | 2.7 µM (inactive) | 0.245 µM (active) | 0.665 µM (active) |
| COc1cc([C@@H]2OC[C@@H]3C(c4cc(OC)c5c(c4)OCO5)OC[C@@H]32)cc(OC)c1OC (stereo not given in full) | – | > 100 µM (inactive) | > 100 µM (inactive) | 49.5 µM (inactive) | > 100 µM (inactive) | > 100 µM (inactive) | > 100 µM (inactive) | > 100 µM (inactive) | > 100 µM (inactive) | 26.9 µM (inactive) | 46.1 µM (inactive) | > 100 µM (inactive) | > 100 µM (inactive) | 42.2 µM (inactive) | 31.6 µM (inactive) | 57.9 µM (inactive) | 69.8 µM (inactive) | > 100 µM (inactive) | 96.8 µM (inactive) | > 100 µM (inactive) |
| O=C(O)CNCP(=O)(O)O [GLYPHOSATE] | > 100 µM (inactive) | > 100 µM (inactive) | > 100 µM (inactive) | > 100 µM (inactive) | > 100 µM (inactive) | > 100 µM (inactive) | > 100 µM (inactive) | > 100 µM (inactive) | > 100 µM (inactive) | > 100 µM (inactive) | > 100 µM (inactive) | > 100 µM (inactive) | – | > 100 µM (inactive) | > 100 µM (inactive) | > 100 µM (inactive) | > 100 µM (inactive) | > 100 µM (inactive) | > 100 µM (inactive) | > 100 µM (inactive) |

Reference: ChEMBL document CHEMBL1201862, “PubChem BioAssay data set” (2004)
